Source: US9394555B2, “Compositions comprising a polypeptide having cellulolytic enhancing activity and a dioxy compound and uses thereof” (priority 2010, dated 2016)

Assays:
[1] = target: T1, T. aurantiacus GH61A polypeptide (Thermoascus aurantiacus, UniProt G3XAP7, N13Y); test: Bacterial cellulose conversion assay (Examples 15, 16); type: biochemical; settings: 72 hours, 50° C.
Experimental: Bacterial cellulose was prepared from NATA DE COCO (Huerto International Trading, Lucena City, Philippines) by extensive rinsing of one 500 ml can of cubes with water followed by homogenation for 15 minutes in 0.25 M sodium hydroxide using a WARING BLENDER® (Waring Products, Torrington, Conn., USA). The resulting slurry was pelleted at 40,000×g in a SORVALL® RT7 centrifuge. The supernatant was discarded. The pellet was then resuspended in 0.25 M sodium hydroxide and stirred overnight at 4° C. This procedure was repeated four times. Following the first washing steps, the cellulose was washed six times under similar conditions, substituting water for 0.25 M sodium hydroxide. Following the water washing, the cellulose was again homogenized for 15 minutes in a WARING BLENDER®, and adjusted to a final volume of 250 ml.
A 0.36% bacterial cellulose slurry was prepared as described in Example 14. This 0.36% slurry was thoroughly resuspended by shaking, and quickly transferred to a 100 ml beaker and stirred rapidly with a magnetic stirrer. Seven hundred μl aliquots of the bacterial cellulose slurry were pipetted into wells of a 2.0 ml 96-deepwell plate (Axygen, Union City, Calif.) using a 1000 μl micropipette with a wide aperture tip (end of tip cut off about 2 mm from the base). One hundred μl of 10 mM MnSO4-500 mM sodium acetate pH 5 was then added to each well. One hundred μl of either deionized water, a 1% gallic acid solution dissolved in water, or a 1% gallic acid solution containing 50 mM EDTA were added to each well. Enzyme mixtures were prepared and then added simultaneously to all wells in a volume of 100 μl, for a total of 1 ml in each reaction. […] All experiments reported were performed in triplicate.
(§1) Primary analysis of the hydrolysis reactions was performed using an AGILENT® 1100 HPLC with CHEMSTATION® software equipped with an AMINEX™ HPX-87H column. After approximately 4 days, the deep-well plate was removed from the incubator and chilled overnight to 4° C. The plate was then mixed well by inversion and briefly centrifuged 52×g in a SORVALL® RT7 centrifuge for 10 seconds. Samples were then mixed by pipetting, and 200 μl from each well were transferred to a MULTISCREEN® HV centrifuge filter plate assembly. The centrifuge filter plate assembly was centrifuged at 2000 rpm in a SORVALL® RT7 centrifuge for 20 minutes. […] Sugars were detected using a refractive index detector with quantification by integration compared to purified sugar standards.
(§2) All HPLC data processing was performed using MICROSOFT EXCEL™ software. […] In this assay only glucose was measured since beta-glucosidase was at high levels in all samples but the controls. Percent conversion was determined using Equation 1. Triplicate data points were averaged and standard deviation was calculated.
The bacterial cellulose hydrolysis assay was performed as described in Example 15.
Data was collected and analyzed, as described in Example 15, after 72 hours of incubation at 50° C.

[2] = target: T1, T. aurantiacus GH61A polypeptide; test: Microcrystalline cellulose conversion assay III (Examples 12, 13), T. reesei Cel7B endoglucanase I + A. oryzae CEL3A beta-glucosidase, with and without EDTA; type: biochemical; settings: 72 hours, 50° C.
Experimental: A 5% microcrystalline cellulose slurry was prepared by addition of 2.5 g of AVICEL® PH101 to a graduated 50 ml screw-cap conical tube followed by approximately 40 ml of deionized water. Each conical tube was then mixed thoroughly by shaking/vortexing, and adjusted to 50 ml total with deionized water and mixed again. Contents of the tube were then quickly transferred to a 100 ml beaker and stirred rapidly with a magnetic stirrer. Five hundred μl aliquots of the 5% AVICEL® slurry were pipetted into wells of a 2.0 ml 96-deepwell plate (Axygen, Union City, Calif., USA) using a 1000 μl micropipette with a wide aperture tip (end of tip cut off about 2 mm from the base). Two hundred μl of deionized water and 100 μl of 10 mM MnSO4-500 mM sodium acetate pH 5 were then added to each well. One hundred μl of either deionized water, a 1% gallic acid solution dissolved in water, or a 1% gallic acid solution containing 50 mM EDTA was added to each well. Enzyme mixtures were prepared and then added simultaneously to all wells in a volume of 100 μl, for a total of 1 ml in each reaction. […] All experiments reported were performed in triplicate.
as §1
as §2, with “The degree of cellulose” for “Percent”, “calculated” for “determined”
The microcrystalline cellulose hydrolysis assay was performed as described in Example 12.
Data were collected and analyzed, as described in Example 12, after 72 hours of incubation at 50° C.

[3] = gallic acid 0.1% w/w + 5 mM EDTA, no enzymes
[4] = gallic acid 0.1% w/w alone, no enzymes

| Molecule | hydrolysis of the bacterial cellulose ([1]; gallic acid 0.1% w/w + 5 mM EDTA + A. oryzae CEL3A beta-glucosidase (50 mg/g), no GH61) | hydrolysis of the bacterial cellulose ([1]; gallic acid 0.1% w/w + 5 mM EDTA + T. aurantiacus GH61A polypeptide (50 mg/g), no beta-glucosidase) | conversion of the bacterial cellulose [1, 3] | hydrolysis of the bacterial cellulose ([1]; gallic acid 0.1% w/w + A. oryzae CEL3A beta-glucosidase (50 mg/g), no GH61) | conversion of the bacterial cellulose [1, 4] | conversion of the microcrystalline cellulose ([2]; gallic acid 0.1% w/w + 5 mM EDTA + T. aurantiacus GH61A polypeptide (5 mg/g), no other enzymes) | conversion of the microcrystalline cellulose [2, 3] | conversion of the microcrystalline cellulose [2, 4] | conversion of the bacterial cellulose ([1]; T. aurantiacus GH61A polypeptide (50 mg/g) + A. oryzae CEL3A beta-glucosidase (50 mg/g), no gallic acid) | conversion of the bacterial cellulose ([1]; T. aurantiacus GH61A polypeptide (50 mg/g) alone) [%] | conversion of the microcrystalline cellulose ([2]; T. aurantiacus GH61A polypeptide (5 mg/g) + endoglucanase I + beta-glucosidase (5 mg/g each), no gallic acid) [%] | conversion of microcrystalline cellulose ([2]; T. aurantiacus GH61A polypeptide (5 mg/g) alone) |
| --- | --- | --- | --- | --- | --- | --- | --- | --- | --- | --- | --- | --- |
| O=C(O)c1cc(O)c(O)c(O)c1 [gallic acid] | no significant hydrolysis | no significant hydrolysis | no significant conversion | no significant hydrolysis | no significant conversion | no significant conversion | no significant conversion | no significant conversion | – | – | – | – |
| T. aurantiacus GH61A polypeptide: GH61A polypeptide having cellulolytic enhancing activity (SEQ ID NO: 14), recombinantly produced in Aspergillus oryzae JaL250 (protein, listed as Thermoascus aurantiacus) MSFSKIIATAGVLASASLVAGHGFVQNIVIDGKYYGGYLVNQYPYMSNPPEVIAWSTTATDLGFVDGTGYQTPDIICHRGAKPGALTAPVSPGGTVELQWTPWPDSHHGPVINYLAPCNGDCSTVDKTQLEFFKIAESGLINDDNPPGIWASDNLIAANNSWTVTIPTTIAPGNYVLRHEIIALHSAQNQDGAQNYPQCINLQVTGGGSDNPAGTLGTALYHDTDPGILINIYQKLSSYIIPGPPLYTG | – | – | – | – | – | – | – | – | no significant conversion | 1.5±1.4 | 4.0±0.2 | no significant conversion |
